Publication PMC7003431, “Betulinic acid shows anticancer activity against equine melanoma cells and permeates isolated equine skin in vitro” (BMC Veterinary Research, 2020)

Legend:
actinic keratoses = test system: actinic keratoses; set-up: method as in PMID 18808378; conditions: 14 human patients; cited from earlier work
[1] = test system: equine melanoma cells MelDuWi; set-up: method as in PMID 26772157; conditions: 96 h incubation, read-out: IC50, sulforhodamine B assay; cited from earlier work
[2] = Franz-type diffusion cell penetration and permeation on isolated equine skin; type: in vitro ADME, horse; conditions: 24 h FDC
Excerpt: Skin samples from seven adult horses of different sex (three mares, two geldings, two unknown) and breed (including three Warmbloods, one Icelandic horse and one Welsh Cob pony, two unknown) were harvested at the Institute of Pathology, University of Veterinary Medicine Hannover, Foundation, Hannover, after euthanasia at the Clinic for Horses, University of Veterinary Medicine Hannover, Foundation, Hannover, for reasons unrelated to the present study. The horses’ ages ranged from 4 to 24 years, with a median of 13.5 years. Skin from the lateral thorax was dissected and stored at − 20 °C for up to 5 months.
“Basiscreme DAC” (pharmaceutical amphiphilic formulation as published in the German Drug Codex) with 1% BA and 20% medium-chain triglycerides was provided by Skinomics GmbH, Halle, Germany.
In order to investigate the penetration and permeation of 1% BA with 20% medium-chain triglycerides in “Basiscreme DAC” through equine skin, the skin samples were defrosted overnight at room temperature. The coat was clipped to a length of approximately 0.5 mm. The integrity of the skin samples was visually assessed. Skin slices of 800 μm (+/− 110 μm) thickness were obtained with an electrical dermatome (Zimmer, Eschbach, Germany). Franz-type diffusion cells (FDC) (PermeGear, Riegelsville, USA, and Gauer Glas, Püttlingen, Germany) with a diffusion area of 1.77 cm^2 and an acceptor chamber volume of approximately 12 mL were filled with PBS and 1% bovine serum albumin. The acceptor chamber content was constantly stirred with a magnetic stirrer at 500 rpm. Diffusion chambers were maintained at 34 °C to ensure a skin temperature of 32 ± 0.5 °C. Before use, equal hydration of the skin samples was obtained by 30 min immersion in PBS. After gently drying with a paper tissue, 20 mg of the drug formulation was carefully applied to the skin surface (stratum corneum) covering the complete diffusion area before mounting the skin pieces onto the FDC. The donor chamber and sampling tube were covered with parafilm.
After 24 h, the remaining donor formulation was removed from the skin with a dry cotton swab. Cotton swabs, acceptor medium and exposed areas of the skin samples, which were cut out with a scalpel blade, were stored at − 20 °C until further processing and analysis. In order to determine the amount of BA in different skin layers, frozen skin samples were fixed on tissue freezing medium (Leica Biosystems Nussloch GmbH, Nussloch, Germany) and placed in a cryostat (CryoStar™ NX70 Cryostat, Thermofisher, Darmstadt, Germany). From each skin sample slices were cut horizontally to the epidermis, starting with the stratum corneum side uppermost, and stored separately. […] After reaching a skin depth of 310 μm, slices were pooled at 5 × 20 μm until a depth of a maximum of 910 μm was reached. The blade was cleaned with tissues soaked in 70% ethanol (CG Chemikalien, Laatzen, Germany) between each cut. These cleaning tissues and skin samples were stored at − 20 °C until final analysis. An analytic high-performance liquid chromatography method was developed for BA quantification in the different skin layers, acceptor medium and cleaning utensils mentioned previously. Reverse phase analysis was performed using an Agilent 1100 system (Agilent, Waldbronn, Germany) on a Kinetex column (5 μm, C18, 100 Å, 250 × 4.6 mm; Phenomenex, Torrance, US) at 35 °C developing with acetonitrile:water (0.1% HCOOH) 4:1 (v/v) at 2.5 mL/min. The diode array detector was set at 200 nm.

[3] = test system: primary equine melanoma cells compared to primary equine dermal fibroblasts; experiment: Selectivity to tumor cells compared to normal cells (MTS and CVS assays); type: cell-based, horse; conditions: equine melanoma cells eRGO1, MelDuWi vs fibroblasts PriFi1, PriFi2
Description: The inhibitory effect of BA on cell proliferation was evaluated using a modified crystal violet staining (CVS) assay. In brief, cells were seeded into 96-well microtiter plates with a density of 5000 cells/well to avert confluence of the cells during the experimental period. Twenty-four hours later, the cells were treated with serial dilutions of BA dissolved in DMSO and medium at nine different concentrations ranging from 1 to 100 μmol/L. The highest concentration of DMSO solvent was 0.5% in 100 μmol/L, which had neither an impact on the cell proliferation rate nor on the cell survival rate (preliminary experiments and regular controls within the experiments; data not shown). Control cells were only treated with medium. The proportion of treated cells in relation to untreated controls was determined 5, 24, 48 and 96 h after the beginning of the drug exposure. […] After 1 h of incubation, absorbance was measured at 570 nm using a 96-well microtiter plate reader (MRX microplate reader, Dynatech Laboratories, El Paso, US). […]
The cytotoxicity of BA was evaluated using the CellTiter 96® AQueous One Solution Cell Proliferation Assay (MTS) (Promega GmbH, Mannheim, Germany). […] After 1 h incubation, the plate absorbance was measured at 490 nm using a 96-well microtiter plate reader (MRX microplate reader, Dynatech Laboratories, El Paso, US). […]

[4] = test system: primary equine melanoma cells eRGO1; experiment: MTS cytotoxicity assay (CellTiter 96 AQueous One Solution); type: cell-based, horse; conditions: Equus caballus, mean (95% CI), 6–8 experiments
Description: (§1) The inhibitory effect of BA on cell proliferation was evaluated using a modified crystal violet staining (CVS) assay. In brief, cells were seeded into 96-well microtiter plates with a density of 5000 cells/well to avert confluence of the cells during the experimental period. Twenty-four hours later, the cells were treated with serial dilutions of BA dissolved in DMSO and medium at nine different concentrations ranging from 1 to 100 μmol/L. The highest concentration of DMSO solvent was 0.5% in 100 μmol/L, which had neither an impact on the cell proliferation rate nor on the cell survival rate (preliminary experiments and regular controls within the experiments; data not shown). Control cells were only treated with medium. The proportion of treated cells in relation to untreated controls was determined 5, 24, 48 and 96 h after the beginning of the drug exposure. The medium for 96-h experiments was renewed before cell treatment (24 h after inoculation). The medium-compound mix was discarded at the time points mentioned above and cells were fixed with 2% glutaraldehyde (Sigma-Aldrich) in PBS for 20 min. Glutaraldehyde was removed and cells were dyed for 30 min with 0.1% crystal violet (Roth GmbH, Karlsruhe, Germany) in deionized water. After washing with deionized water, the plates were air-dried. Subsequently, crystal violet was solubilized out of the cells by adding 2% Triton X-100 (Sigma-Aldrich, Steinheim, Germany) in deionized water. After 1 h of incubation, absorbance was measured at 570 nm using a 96-well microtiter plate reader (MRX microplate reader, Dynatech Laboratories, El Paso, US). Experiments were performed in six to eight biological replicates with two technical replicates for each combination of cell type, incubation time and pharmacologic compound concentration. The ratios of mean optical density of the duplicate to mean optical density of the associated controls were used for dose-response curves.
(§2) The cytotoxicity of BA was evaluated using the CellTiter 96® AQueous One Solution Cell Proliferation Assay (MTS) (Promega GmbH, Mannheim, Germany). Cells were seeded into 96-well microtiter plates with the appropriate cell densities to achieve confluence after 48 h (MelDuWi 30.000 cells/well; PriFi1, PriFi2, eRGO1 20.000 cells/well). After 48 h, these cells were treated in accordance with the CVS assay. Experiments were stopped at the same time points as the CVS assay. The medium for the 96-h experiments was renewed before treatment. The MTS was applied in accordance with the manufacturer’s instructions. After 1 h incubation, the plate absorbance was measured at 490 nm using a 96-well microtiter plate reader (MRX microplate reader, Dynatech Laboratories, El Paso, US). Experiments were performed in six to eight biological replicates with two technical replicates for each combination of pharmacologic compound, cell type, incubation time and concentration.
(§3) Technical duplicates with a coefficient of variation of more than 20% were excluded from the analysis of the cell assays. The pharmacodynamic model 108 of Phoenix® WinNonlin® software (version 8.1, Certara, USA) was used to determine half-maximal inhibitory concentrations (IC50 values). Further statistical analysis was performed with R 3.5.1 [60]. A generalized additive model was fitted for both MTS and CVS using the ‘mgcv’ package to estimate the effects of the BA concentration, cell line and duration of incubation on the ratio of the mean optical density of the duplicates from six to eight replicates to the mean optical density of the associated controls. The effect of concentration was modelled as a smoothed term interacting with the duration of incubation using a thin plate regression spline. The P-values were obtained by performing a Wald test for each parameter. Post-hoc comparisons for the cell line and duration of incubation were performed using the ‘multcomp’ package with single-step adjustment of the P-values. […]

[5] = test system: primary equine melanoma cells MelDuWi; experiment: as above; type: cell-based, horse; conditions: Equus caballus, mean (95% CI), 6–8 experiments
Description: as §1, §2, §3

[6] = test system: primary equine dermal fibroblasts PriFi1; experiment: as above; type: cell-based, horse; conditions: Equus caballus, Fibroblast, mean (95% CI), 6–8 experiments
Description: as §1, §2, §3

[7] = test system: primary equine dermal fibroblasts PriFi2; experiment: as above; type: cell-based, horse; conditions: Equus caballus, Fibroblast, mean (95% CI), 6–8 experiments
Description: as §1, §2, §3

[8] = test system: equine melanoma cells MelJess; set-up: method as in PMID 26772157; conditions: 96 h incubation, read-out: IC50, sulforhodamine B assay; cited from earlier work
[9] = test system: primary equine melanoma cells eRGO1; experiment: Crystal violet staining (CVS) proliferation assay; type: cell-based, horse; conditions: Equus caballus, mean (95% CI), 6–8 experiments
Description: as §1
(§4) Technical duplicates with a coefficient of variation of more than 20% were excluded from the analysis of the cell assays. The pharmacodynamic model 108 of Phoenix® WinNonlin® software (version 8.1, Certara, USA) was used to determine half-maximal inhibitory concentrations (IC50 values). Further statistical analysis was performed with R 3.5.1 [60]. A generalized additive model was fitted for both MTS and CVS using the ‘mgcv’ package to estimate the effects of the BA concentration, cell line and duration of incubation on the ratio of the mean optical density of the duplicates from six to eight replicates to the mean optical density of the associated controls. The effect of concentration was modelled as a smoothed term interacting with the duration of incubation using a thin plate regression spline. The P-values were obtained by performing a Wald test for each parameter. Post-hoc comparisons for the cell line and duration of incubation were performed using the ‘multcomp’ package with single-step adjustment of the P-values. Plots were produced with ggplot2 [63]. Statistical significance was set at P < 0.05.

[10] = test system: primary equine melanoma cells MelDuWi; experiment: Crystal violet staining (CVS) proliferation assay; type: cell-based, horse; conditions: Equus caballus, mean (95% CI), 6–8 experiments
Description: as §1, §4

[11] = test system: primary equine dermal fibroblasts PriFi1; experiment: Crystal violet staining (CVS) proliferation assay; type: cell-based, horse; conditions: Equus caballus, Fibroblast, mean (95% CI), 6–8 experiments
Description: as §1, §4

[12] = test system: primary equine dermal fibroblasts PriFi2; experiment: Crystal violet staining (CVS) proliferation assay; type: cell-based, horse; conditions: Equus caballus, Fibroblast, mean (95% CI), 6–8 experiments
Description: as §1, §4

[13] = 1% BA with 20% medium-chain triglycerides in Basiscreme DAC, mean ± SD

C=C(C)[C@@H]1CC[C@]2(CO)CC[C@]3(C)[C@H](CC[C@@H]4[C@@]5(C)CC[C@H](O)C(C)(C)[C@@H]5CC[C@]43C)[C@@H]12 [betulin]
side effects of topical treatment (actinic keratoses): did not lead to any side effects

C=C(C)[C@@H]1CC[C@]2(C(=O)O)CC[C@]3(C)[C@H](CC[C@@H]4[C@@]5(C)CC[C@H](O)C(C)(C)[C@@H]5CC[C@]43C)[C@@H]12 [betulinic acid, Betulinic acid]
IC50 [1]: 33.1 µM | BA amount applied analyzed in the skin [2, 13]: 24 ± 1% | amount of BA applied detected in the acceptor media [2, 13]: 18 ± 11% | amount of BA applied detected in the cotton swabs ([2]; 1% BA with 20% medium-chain triglycerides in Basiscreme DAC, remaining donor formulation, mean ± SD): 56 ± 13% | recovery at 24 h, 1 % ([2]; both sexes, horse, 1% BA with 20% medium-chain triglycerides in Basiscreme DAC, mean ± SD, n = 7, read-out: overall BA recovery): 98 ± 7% | BA amount found in the blade cleaning tissues ([2]; part of the amount in skin, 1% BA cream, mean ± SD): 9 ± 7% | concentration of BA in skin ([2]; skin depth 710 μm, 1% BA cream, mean ± SD (SD 31 μmol/L)): 55.8 µM | concentration of BA in skin ([2]; skin depth 810 μm, 1% BA cream, mean ± SD (SD 38 μmol/L)): 39.6 µM | selectivity to tumor cells compared to normal cells [3]: could not be demonstrated | IC50 ([4]; eRGO1, 24 h treatment): 22.8 µM | IC50 ([4]; eRGO1, 48 h treatment): 20.7 µM | IC50 ([4]; eRGO1, 96 h treatment): 12.7 µM | IC50 ([5]; 24 h treatment): 34.6 µM | IC50 ([5]; 48 h treatment): 31.7 µM | IC50 ([5]; 96 h treatment): 23.6 µM | IC50 ([6]; PriFi1, 24 h treatment): 20.4 µM | IC50 ([6]; PriFi1, 48 h treatment): 18 µM | IC50 ([6]; PriFi1, 96 h treatment): 13.8 µM | IC50 ([7]; PriFi2, 24 h treatment): 24.8 µM | IC50 ([7]; PriFi2, 48 h treatment): 22.7 µM | IC50 ([7]; PriFi2, 96 h treatment): 13.3 µM | IC50 [8]: 33.4 µM | IC50 ([9]; eRGO1, 24 h treatment): 25.9 µM | IC50 ([9]; eRGO1, 48 h treatment): 21.2 µM | IC50 ([9]; eRGO1, 96 h treatment): 19.6 µM | IC50 ([10]; 24 h treatment): 49.2 µM | IC50 ([10]; 48 h treatment): 35.8 µM | IC50 ([10]; 96 h treatment): 21.6 µM | IC50 ([11]; PriFi1, 24 h treatment): 58 µM | IC50 ([11]; PriFi1, 48 h treatment): 52.2 µM | IC50 ([11]; PriFi1, 96 h treatment): 14.5 µM | IC50 ([12]; PriFi2, 24 h treatment): 30.3 µM | IC50 ([12]; PriFi2, 48 h treatment): 29.1 µM | IC50 ([12]; PriFi2, 96 h treatment): 13.8 µM
